Patent publication US7101882B2, “Morpholin-acetamide derivatives for the treatment of inflammatory diseases” (Glaxo Group Limited, priority 2000, dated 2006)

Biological target: eosinophils
Assay: Eosinophil chemotaxis assay (assay (b))
Assay type: cell-based, human
Experimental: (b) Eosinophil Chemotaxis Assay.
Compounds were evaluated for their inhibitory effect on eosinophil chemotaxis. Eosinophils were purified from human peripheral blood by standard CD16 cell depletion using a Miltenyi cell separation column and a magnetic Super Macs magnet as previously described (Motegi & Kita, 1998; J. Immunology. 161:4340-6). Cells were re-suspended in RPMI 1640/10% FCS solution and incubated with calcein-AM (Molecular Probes) at 37° C. for 30 mins. Following incubation, the eosinophils were centrifuged at 400 g for 5 min and re-suspended in RPMI/FCS at 2.2 million/ml. Cells were then incubated in the presence of increasing concentration of compounds (1 pM to 30 μM) at 37° C. for 30 mins. For control responses cells were incubated with RPMI/FCS only. The agonist eotaxin (either a concentration response curve or for the functional inhibition curves an EC80 concentration) was added to the lower chamber of a 96 well chemotaxis plate (5 μm filter: Receptor Technologies). […] Cells remaining on top of the chemotaxis filter were removed and the number of eosinophils which had migrated were quantified by reading the plate on a fluorescent plate reader. Inhibition curves for the effect of compounds on eosinophil chemotaxis were analysed by fitting the data with a four parameter logistic equation. […]

CCR-3 Eosinophil Chemotaxis Assay (fpKi): 8.2
SMILES: NS(=O)(=O)c1cccc(CC(=O)NC[C@H]2CN(Cc3ccc(Cl)c(Cl)c3)CCO2)c1 [Example 162, 2-[3-(Aminosulfonyl)phenyl]-N-{[(2S)-4-(3,4-dichlorobenzyl)morpholin-2-yl]methyl}acetamide]
